Source: paper PMC7948474, “Structural basis of carnitine monooxygenase CntA substrate specificity, inhibition, and intersubunit electron transfer” (The Journal of Biological Chemistry, 2020)
Entries after “also recorded” stand apart in the source; their conditions may differ. Read-outs that look alike come from different tables or passages of the source. One block for each molecule: values may come before it.

Assays:
CutC = system: CutC; set-up: method as in PMID 30082863; settings: irreversible covalent bond in the CutC catalytic site; cited from earlier work
[1] = system: TMA production in A. baumannii cells; experiment: Evaluation of inhibitors in A. baumannii cell culture (TMA production from carnitine); type: cell-based, Acinetobacter baumannii; settings: inhibitor 200 μM; carnitine 1 mM; 37 °C, 1 h; N = 3
Description: A. baumannii cells were cultured overnight in the M9 minimal media at 37 °C with 10 mM L-carnitine as the sole carbon source. The cells were then collected by centrifugation and washed twice in a buffer containing 10 mM Hepes, 1 mM NaCl (pH 7.6). After wash, the cells were resuspended in the same buffer to a density of OD600 of 0.4. […]. These cells with appropriate treatments were incubated at 37 °C for 1 h. The supernatant was then obtained by filtering through a 0.2-μm filter and analyzed by ion chromatography by quantifying TMA production and carnitine degradation as described previously ([13]).

CntA [2] = biological target: T1, CntA (Acinetobacter baumannii, UniProt D0C9N6); experiment: Inhibitory IC50 determination against CntA (UV-visible enzyme assay); type: biochemical
T1 construct: made in house; host or cells: Escherichia coli BL21(DE3)pLysS
T1 sequence (D0C9N6 1-371): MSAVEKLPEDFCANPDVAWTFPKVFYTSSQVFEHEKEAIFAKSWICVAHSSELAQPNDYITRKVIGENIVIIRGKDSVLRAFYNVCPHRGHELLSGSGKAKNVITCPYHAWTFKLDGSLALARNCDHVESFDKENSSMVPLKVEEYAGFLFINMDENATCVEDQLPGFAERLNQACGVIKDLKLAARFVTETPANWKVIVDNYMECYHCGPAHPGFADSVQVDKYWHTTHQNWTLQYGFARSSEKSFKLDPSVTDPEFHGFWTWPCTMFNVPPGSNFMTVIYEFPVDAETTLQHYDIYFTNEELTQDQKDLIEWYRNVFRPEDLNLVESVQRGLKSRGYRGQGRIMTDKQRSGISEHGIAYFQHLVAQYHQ
Description: (§1) All activity assays were performed on a BMG FLOUstar Omega 96-well plate reader, set at wavelength 340 nm with a sample volume of 200 μl. The assay comprised combining mixture A 60 μg CntA and 60 μg CntB with mixture B 0.25 mM L-carnitine and 0.25 mM NADH in a 10 mM Hepes buffer, pH 7.6 with 250 mM NaCl and 0.5 mM TCEP. […] The reactions were measured for 5 min recording the linear decrease of signal at 340 nm for NADH oxidation. The slope of the line was measured between 60 and 120 s to yield the rate.
Compounds in the Pathogen Box (https://www.mmv.org/mmv-open/pathogen-box/about-pathogen-box) were received as 10 mM stocks dissolved in dimethylsulfoxide (DMSO). The compounds were added such that the final concentration was 50 μM in the 200-μl reaction. As per the “UV-visible enzyme assays” methodology above, the protein in mixture A was incubated with inhibitor compounds for 20 min before commencing the assay.
[…]. For each concentration, four replicates were carried out. IC50 values were determined using a built-in “Dose Response Inhibition” – [Inhibitor] versus response model in Prism 8 for macOS v8.2.0.

CntA [3] = biological target: T1, CntA; experiment: Substrate profiling of carnitine analogs with CntA (structure–activity relationship); type: biochemical; settings: substrate analogs tested as CntA substrates
Description: as §1

[4] = substrate: C[N+](C)(C)CCCC(=O)[O-]; experiment: Michaelis–Menten kinetics of CntA (UV-visible NADH oxidation assay); type: biochemical, Acinetobacter baumannii; settings: other: substrate of CntA; n = 4; pH 7.6
Description: as §1
(§2) Michaelis–Menten kinetic parameters were derived using the UV-visible enzyme assays methodology above. Substrate concentrations were varied from a top concentration of 2 mM and decreasing in a twofold manner for 10 successive dilutions. Observed rates were obtained from four independent measurements and fitted to a nonlinear regression Michaelis–Menten model in Prism 8 for macOS v8.2.0.

[5] = substrate: C[N+](C)(C)CC(O)CC(=O)[O-]; experiment: as above; type: biochemical, Acinetobacter baumannii; settings: other: substrate of CntA; n = 4; pH 7.6
Description: as §1, §2

[6] = substrate: C[N+](C)(C)NCCC(=O)[O-]; experiment: as above; type: biochemical, Acinetobacter baumannii; settings: other: substrate of CntA; n = 4; pH 7.6
Description: as §1, §2

[7] = substrate: CCCC[N+](C)(C)C; experiment: as above; type: biochemical, Acinetobacter baumannii; settings: other: substrate of CntA; n = 4; pH 7.6
Description: as §1, §2

Molecule: C[N+](C)(CF)CCO [FMC, N-(fluoromethyl)-2-hydroxy-N,N-dimethylethan-1-aminium]
- EC50 (CutC): 0.056 µM

Molecule: c1csc(-c2cnc3sc(NCC4CCOCC4)nn23)c1 [MMV1, N-[(oxan-4-yl)methyl]-5-(thiophen-2-yl)imidazo[2,1-b][1,3,4]thiadiazol-2-amine]
- Effect on TMA formation from carnitine in A. baumannii culture [1]: did not reduce TMA production; also recorded: did not inhibit TMA formation
- IC50 (CntA [2]): 5.8 µM

Molecule: Brc1cncc(-c2cc(NCCCn3ccnc3)nc(-c3ccccc3)n2)c1 [MMV3, 6-(5-bromopyridin-3-yl)-N-[3-(1H-imidazol-1-yl)propyl]-2-phenylpyrimidin-4-amine]
- Effect on TMA formation from carnitine in A. baumannii culture [1]: significant reduction; also recorded: almost completely inhibited TMA formation
- IC50 (CntA [2]): 1.1 µM

- IC50 (CntA [2]; dose response, N=3, read-out: IC50 (inhibition of CntA activity)): 35000 µM
Molecule: N#CS [SCN, thiocyanate]

Molecule: C[N+](C)(C)CC(O)CC(=O)[O-] (centres unmarked) [compound 1, Carnitine]
- Oxidation by CntA (activity as substrate) (CntA [3]): oxidizing

Molecule: C[N+](C)(C)CCCC(=O)[O-] [compound 2, γ-butyrobetaine]
- Oxidation by CntA (activity as substrate) (CntA [3]): oxidizing

Molecule: C[N+](C)(C)NCCC(=O)[O-] [compound 3, Meldonium]
- Oxidation by CntA (activity as substrate) (CntA [3]): can also oxidize

Molecule: CCCC[N+](C)(C)C [compound 4, (1-Butyl)Trimethylammonium]
- Oxidation by CntA (activity as substrate) (CntA [3]): can also oxidize

B1: CntA (Acinetobacter baumannii ATCC 19606 = CIP 70.34 = JCM 6841) (protein)
chain: MSAVEKLPEDFCANPDVAWTFPKVFYTSSQVFEHEKEAIFAKSWICVAHSSELAQPNDYITRKVIGENIVIIRGKDSVLRAFYNVCPHRGHELLSGSGKAKNVITCPYHAWTFKLDGSLALARNCDHVESFDKENSSMVPLKVEEYAGFLFINMDENATCVEDQLPGFAERLNQACGVIKDLKLAARFVTETPANWKVIVDNYMECYHCGPAHPGFADSVQVDKYWHTTHQNWTLQYGFARSSEKSFKLDPSVTDPEFHGFWTWPCTMFNVPPGSNFMTVIYEFPVDAETTLQHYDIYFTNEELTQDQKDLIEWYRNVFRPEDLNLVESVQRGLKSRGYRGQGRIMTDKQRSGISEHGIAYFQHLVAQYHQ
notes: made in house; host or cells: Escherichia coli BL21(DE3)pLysS
- Vmax [4]: 76.06 (± 1.6) nmol/min/mg
- Vmax [5]: 59.0 (± 3.1) nmol/min/mg
- Vmax [6]: 43.8 (± 1.4) nmol/min/mg
- Vmax [7]: 30.1 (± 3.4) nmol/min/mg
